# Data: patent publication US12508245B2, “Co-therapies including a metastasis inhibitor” (priority 2017, dated 2025)
# What was measured:
# [1] = tested on: MDA-MB-231 human breast tumor cells
# Experimental: MDA-MB-231 cells (subclone LM2) (1×10^5) suspended in PBS were injected subcutaneously into the abdominal mammary gland area of mice on day 1 as previously described. […] On the first day of the ninth week, the mice were killed. […] Numbers of metastatic MDA-MB-231 cells in lungs were determined by the clonogenic assay. In brief, lungs were removed from each mouse once sacrificed, finely minced and digested in 5 ml of enzyme cocktail containing 1×PBS and 1 mg/ml collagenase type IV for 2 h at 37° C. on a platform rocker. After incubation, samples were filtered through 70-μm nylon cell strainers and washed twice with PBS. Resulting cells were suspended, plated with a series of dilutions in 10 cm tissue culture dishes in medium containing 2.0 μg/ml puromycin for clonogenic growth. As these MBA-MB-231 tumor cells were stably transfected with the vector pSuper-puro, metastasized tumor cells formed foci after 14 days, at which time they were fixed with 4% paraformaldehyde and stained with crystal violet staining solution for counting.
# MDA-MB-231 tumor cells = assay: Overall survival of NSG mice implanted with MDA-MB-231 tumor cells, combination treatment with chemotherapy; type: in vivo, human
# Experimental: Vehicle solvent was given to control mice once a day for 6 days every week. Starting on day 15, doxorubicin hydrochloride (Sigma) (2 mg/kg) and cyclophosphamide monohydrate (Sigma) (60 mg/kg) were given to mice once a week for four weeks. Primary tumors were removed on day 29. Death of mice was used as the endpoint.
# [2] = Pharmacokinetic study of Compound A in mice: stability of the plasma samples (LC-MS/MS); type: in vitro ADME; conditions: mouse plasma samples, K2 EDTA
# Experimental: Concentrations of Compound A in plasma were determined using high performance liquid chromatography with tandem mass spectrometry (LC MS/MS). All blood samples were transferred into commercial tube containing Potassium (K2) EDTA and processed for plasma. Samples were centrifuged (3000×g for 10 minutes at 2 to 8° C.) within one hour of collection. The assays used a Sciex API 4000 detector and nifedipine as an internal standard. The calibration ranges for Compound A for were 5.00 to 5000 ng/mL. The plasma concentration of Compound A in mice was subjected to a non-compartmental pharmacokinetic analysis by using the Phoenix WinNonlin software (version 6.3, Pharsight, Mountain View, CA). The nominal dose levels and nominal sampling times were used in the calculation of all pharmacokinetic parameters. The linear/log trapezoidal rule was applied in obtaining the PK parameters.
# [3] = tested on: 4T1 mouse breast tumor cells
# Experimental: Female BALB/c mice (6-8 week old) were purchased from Charles River. 4T1 tumor cells (1×10^5) were injected subcutaneously into the abdominal mammary gland area of mice using 0.1 ml of a single-cell suspension in PBS on Day 0 as previously described. […] Starting on Day 8, when the tumors averaged about ˜4-5 mm in diameter, Compound A or control solvent were given once or twice every day by oral gavage at 10, 30, 100 or 300 mg/kg per mouse until Day 27. On Day 28, the mice were sacrificed. […] Numbers of metastatic 4T1 cells in lungs were determined by the clonogenic assay. In brief, lungs were removed from each mouse, finely minced and digested in 5 ml of enzyme cocktail containing 1×PBS and 1 mg/ml collagenase type IV for 2 hours at 37° C. on a platform rocker. After incubation, samples were filtered through 70-μm nylon cell strainers and washed twice with PBS. Resulting cells were suspended, plated with a series of dilutions in 10 cm tissue culture dishes in DMEM medium containing 60 μM thioguanine for clonogenic growth. As 4T1 tumor cells are resistant to 6-thioguanine, metastasized tumor cells formed foci after 14 days, at which time they were fixed with 4% paraformaldehyde and stained with crystal violet staining solution for counting. […]
# 4T1 breast tumor cells = assay: Combination treatment with Compound A and immunotherapy, 4T1 tumor-bearing BALB/c mice, overall survival; type: in vivo, mouse
# Experimental: Female BALB/c mice (6- to 8-week-old) were purchased from Charles River Laboratories. […] Mol Oncol 10, 966-980 (2016). Starting on day 8 or 22, Compound A was given to mice once every day for 5 days a week by oral gavage at 100 mg/kg per mouse. Tumor-bearing mice were given 10 mg/kg anti-PD-1 and 10 mg/kg anti-CTLA-4 antibodies i.p. on day 11, 13, 15, and 17 as previously described. Kim, K. et al. Eradication of metastatic mouse cancers resistant to immune checkpoint blockade by suppression of myeloid-derived cells. Proc Natl Acad Sci USA 111, 11774-11779 (2014). Control group mice were given control mouse IgG at the same time. Primary tumor volume was calculated as length×width^2×π/6.
structure (smiles),measurement,setting,value
Cc1occc1C(=O)Nc1nn(Cc2ccc(C(F)(F)F)cc2)c2ccccc12 [NP-G2-044],"metastasis to the lung, single agent","[1]; MDA-MB-231 cells implanted into the mammary fat pad, QD or BID (FIG. 1c-e)",blocks tumor metastasis
same,tolerability of the dosage regimen,[1]; in vivo,well tolerated with no signs of overt toxicity
same,overall survival of tumor-bearing mice,"MDA-MB-231 tumor cells; NSG mice, MDA-MB-231, primary tumors removed on Day 29, NP-G2-044 started on Day 1, chemotherapy for 4 weeks, death as endpoint (FIG. 2b)",increases overall survival
same,"overall survival in the combination therapies, earlier versus late start of NP-G2-044","MDA-MB-231 tumor cells; with chemotherapy, NP-G2-044 starting on day 1 or 8 compared with day 15 (FIG. 2d)",had better effect than late treatment
same,"stability after freeze-thaw, and during storage, processing and analysis",[2],stable
same,"metastasis to the lung, single agent",[3]; 4T1 cells implanted into the mammary fat pad (FIG. 1f-g),blocks tumor metastasis
same,tolerability of the dosage regimen,"[3]; mouse, in vivo",well tolerated with no signs of overt toxicity
same,overall survival of tumor-bearing mice,"4T1 breast tumor cells; 4T1 tumor-bearing mice, anti-PD-1 and anti-CTLA-4 antibodies, death as endpoint (FIG. 3c)",increased the overall survival
same,"immunotherapy response (overall survival) in combination therapy, early treatment","4T1 breast tumor cells; NP-G2-044 starting on day 8, with anti-PD-1 and anti-CTLA-4 antibodies (FIG. 3e)",boosted the immunotherapy response
same,"immunotherapy response (overall survival) in combination therapy, late treatment","4T1 breast tumor cells; NP-G2-044 starting on day 22, with anti-PD-1 and anti-CTLA-4 antibodies (FIG. 3e)",boosted the immunotherapy response
